# Test results as given in patent publication US20060073156A1, “Fosfomycin and n-acetylcysteine for the treatment of biofilms caused by escheric ia coli and other pathogens of the urinary tract” (ZAMBON GROUP S.P.A., priority 2002, published 2006).
# “And” between values parts separate entries of the source, which are not always exact repeats. Equal values may be shown once. Read-outs that look alike come from different tables or passages of the source.
# Key:
# [1] = test system: biofilm produced by Escherichia coli; assay: Formation of biofilm, Crystal Violet staining in polystyrene microplates, measured at 492 nm; format: cell-based; conditions: various concentrations of NAC added to the cultures; three strains out of four
# Procedure: (§1) The effects of NAC and fosfomycin on the biofilm produced by Escherichia coli have been evaluated on four strains designated 169, 255, 1263 and 1293, from the Microbiological Collection of the Genua University.
# (§2) Formation of the biofilms was measured spectrophotometrically in U-bottom polystyrene microplates (Corning Incorporated, NY).
# In more detail, the effect of NAC on the formation of biofilms was evaluated as follows: overnight cultures in Tryptic Soy Broth (TSB) with addition of glucose (0.25%). (TSBG) were diluted 1:100 in TSBG. These suspensions (100 μl each) were added to suitable dilutions of NAC at concentrations ranging from 8 mg/ml to 0.007 mg/ml respectively. After incubation at 37° C. for 24 hours, the microplates were washed three times with 10 mM phosphate buffer pH 7.4 (PBS), treated with Bouin fixative and then stained with Crystal Violet (0.01%).
# (§3) The biofilm adhering to the walls of the microplates was collected via washing with PBS, suspended in 10% sarbosyl and measured spectrophotometrically at 492 nm.
# Escherichia coli = assay: Bacterial growth of cultures with NAC added; format: cell-based; conditions: various concentrations of NAC added to the cultures; all E. coli strains tested
# [2] = test system: biofilm produced by Escherichia coli; assay: Disruption of biofilms: residual quantity of biofilm after treatment of initial (5 hours) and fully consolidated (48 hours) biofilms; format: cell-based; conditions: NAC alone; for reduction of mature biofilms: mature (48 hours) biofilms
# Procedure: as §1, §2, §3
# The same method was used for calculating the residual quantity of biofilm after treatment with NAC and fosfomycin, alone or associated, on Escherichia coli. For this purpose, biofilms with two different degrees of maturity: initial (5 hours) and fully consolidated (48 hours) were exposed to appropriate concentrations of NAC (from 8 mg/ml to 0.007 mg/ml) with addition of fosfomycin at the concentrations attainable in vivo in the urine.
# [3] = test system: biofilms of P. aeruginosa; conditions: Antimicrob. Agents Chemother., 35, 1258, (1991); cited from earlier work
# S. epidermidis = conditions: J. Ant. Chem., 39, 643, (1997); cited from earlier work
# [4] = test system: Escherichia coli cells of the biofilm; assay: Bacterial viability of biofilm cells: sonication, seeding, count of viable units (CFU/ml); format: cell-based; conditions: for inhibition at 2000 µg/mL: Escherichia coli, fosfomycin 2000 mg/l alone, read-out: reductions in viable units
# Procedure: as §1
# At the same time the biofilms treated in this way were submitted to sonication in order to disperse the cells that were still adhering, which were seeded on rich medium after suitable dilution for calculating the viable units that survived the various treatments.
Compound,reductions in biofilm (formation) [1],changes in bacterial growth (Escherichia coli),"reduction of initial biofilms ([2]; initial (5 hours) biofilms, strains not named)",reduction of mature biofilms ([2]; Escherichia coli 169) [%],reduction of mature biofilms ([2]; three strains out of four),ability to disrupt biofilms [3],inhibition of biofilm formation (S. epidermidis),inhibition at 2000 µg/mL ([4]; fully consolidated biofilms) [%],inhibition at 2000 µg/mL ([4]; initial biofilms) [%],reductions in CFU/ml ([4]; fosfomycin 128 mg/l alone)
"CC(=O)N[C@@H](CS)C(=O)O [NAC, N-acetylcysteine]",greater than 50%,did not cause appreciable changes,51.7% and 64.0% and 58.4%,25.2,64.3% and 60.2% and 67.7%,ability to disrupt biofilms,inhibit their formation,–,–,–
"C[C@@H]1O[C@@H]1P(=O)(O)O [fosfomycin, Fosfomycin]",–,–,–,–,–,–,–,36 to 85.7,98 to 99.5,less than 1 logarithm
